# Measured values reported in US12077778B2, “Methods of generating human inner ear sensory epithelia and sensory neurons” (INDIANA UNIVERSITY RESEARCH AND TECHNOLOGY CORPORATION, priority 2015, dated 2024).
# Experiments:
# Assay type in all cases: cell-based, human
# [1] = system: Matrigel-embedded hPSC aggregates; assay: Otic pit/vesicle formation in Matrigel-embedded day 12 aggregates treated with Wnt agonist
# Text: To promote PAX2 expression and vesicle formation, we began testing various signaling modulators (FIGS. 12A-12C). […] We suspected that extracellular matrix could provide structural support for vesicle formation; thus, we transferred day 12 aggregates to Matrigel droplets in a minimal media (FIG. 4A). In these cultures, we observed radial production of migratory cells, but no vesicle-like structures or PAX2^+ cells were apparent (FIG. 2B). Wnt activation seems to be essential for otic, but not epibranchial development, in vivo and can enhance the production of mouse inner ear organoids in vitro^4,19-21. Remarkably, in 90.9±5.2% of Matrigel®-embedded aggregates treated with a Wnt signaling agonist, CHIR99021, between days 12-16 (n=84, 7 experiments), we witnessed epithelial protrusions reminiscent of the otic pits that precede vesicle development in vivo (FIG. 4C). We determined that the otic pit-like structures were PAX2^+ PAX8^+ SOX2^+ SOX10^+ JAG1^+, confirming otic identity (FIGS. 4D-4H). […] The aggregates were resuspended in ice cold undiluted GFR Matrigel and placed in approximately 25 μl droplets on the surface of a 100 mm bacterial culture plate. After at least 30 minutes of incubation at 37° C., the droplets were bathed in 10 ml of OMNI containing 3 μM CHIR99021. For non-droplet otic induction, the aggregates were washed and plated individually into each well of a 24-well low cell adhesion plate in OMNI containing 3 μM CHIR and 1% GFR Matrigel. After 18 days of differentiation, the CHIR was removed from the medium by washing and the droplet aggregates were moved to a floating culture. Droplets were carefully dislodged using a wide-mouth […] tip and transferred to 75 ml of fresh OMNI in a 125 ml disposable spinner flask (Corning). Spinner flasks were maintained on an in-incubator stir plate (Thermo Scientific) at 65 RPM for up to 180 days of differentiation. For some experiments, the aggregates were maintained in individual wells of 24-well low-cell adhesion plates in 1 ml of OMM on an in-incubator orbital shaker (Thermo Scientific) for up to 140 days. […]
# [2] = system: OEPD-induced aggregates; assay: qPCR of PAX8/PAX2 expression after WNT and FGF signaling modulation, days 8-10; details: one exploratory experiment
# Description: Thus, we changed strategies by lengthening the initial culture phase to 12 days (with addition of fresh media on day 8) and testing the effect of transitioning the aggregates to Matrigel™ droplets.
# Quantitative PCR. Analysis was performed as previously described on an ABI PRISM 7900HT Sequence Detection System (Applied Biosystems) or a Bio-Rad CFX96 quantitative PCR machine (Bio-Rad)^6. Data were normalized to L27 expression (internal control) and the fold change was calculated relative to Ct values from d0 WA25 aggregates using the ΔΔCt method. Unless stated otherwise, data represent at least 3 separate biological samples from separate experiments. All indicators of statistical significance refer to comparisons between a given condition and the control group. Refer to Table 4 for primer details.
# [3] = system: hPS cell aggregates; assay: Otic placode-like cell induction by CHIR treatment on day 8; details: CHIR 3 μM added on day 8
# Description: hPSC differentiation. To start differentiation, hPSC cells were dissociated with StemPro Accutase (Invitrogen) and distributed, 5,000 cells per well, onto 96-well V-bottom plates in E8 medium containing 20 μM Y-27632 (Stemgent) and Normocin. Following a 48 hour incubation, the aggregates were transferred to 96-well U-bottom plates in 100 μl of Chemically Defined Medium (CDM) containing 4 ng ml^−1 FGF-2 (Peprotech), 10 μM SB-431542 (Stemgent), and, for some experiments, 2.5 ng ml^−1 BMP4 (Stemgent), and 2% Growth Factor Reduced (GFR) Matrigel (Corning) to initiate non-neural induction—i.e. differentiation day 0. CDM contained a 50:50 mixture of F-12 Nutrient Mixture with GlutaMAX (Gibco) and Iscove's Modified Dulbecco's Medium with GlutaMAX (IMDM; Gibco) additionally supplemented with 0.5% Bovine Serum Albumin (BSA), 1× Chemically Defined Lipid Concentrate (Invitrogen), […] (Sigma), 15 μg ml^−1 Transferrin (Sigma), 450 μM Mono-Thioglycerol, and Normocin (see Table 1 for a detailed formulation). […] For some experiments, CDM containing a 18 μM CHIR99021 (3 μM final concentration; Stemgent) was added to the pre-existing 125 μl of media in each well—we determined that this treatment is optional for inner ear organoid production, but may improve induction of otic placode-like cells. […]
smiles,measurement,setting,value
Cc1c[nH]c(-c2cnc(NCCNc3ccc(C#N)cn3)nc2-c2ccc(Cl)cc2Cl)n1 [CHIR99021],aggregates with epithelial protrusions reminiscent of otic pits,"[1]; CHIR99021 between days 12-16, n=84, 7 experiments",90.9±5.2%
same,PAX8+ PAX2+ SOX10+ vesicles evaginating from the outer epithelium,[1]; CHIR between days 12-18,10-30 vesicles per aggregate
same,aggregates with otic vesicle formation,"[1]; Matrigel embedding with continued CHIR, days 12-18, >100 aggregates, four independent experiments",> 95%
same,PAX2 expression (qPCR) compared to DMSO controls,[2],only had a modest positive or negative impact on PAX2 expression
same,PAX2+ cells by day 12,[3],induces small patches of PAX2+ cells
